Results from US20250163056A1, “NONMUSCLE MYOSIN II INHIBITORS” (The University of Florida Research Foundation, Inc., priority 2018, published 2025).

How the values were obtained:
[1] = target: Bovine cardiac myosin (Bos taurus (Bovine), UniProt Q9BE39); assay: Cardiac muscle myosin II actin-activated ATPase assay (NADH-coupled); assay type: biochemical; design: key to Ratio CMMII:NMII Ki/EC50: NMII-sel: no Ki value for cardiac myosin II could be determined; the compounds had no detectable inhibitory properties versus the cardiac myosin II; conditions: for Ratio CMMII:NMII Ki/EC50: cardiac myosin II Ki over nonmuscle myosin II EC50; for Ki: 300 nM cardiac myosin, 10 μM actin, 25° C., read-out: CMMII KI
Sequence of Bovine cardiac myosin (Q9BE39 whole entry): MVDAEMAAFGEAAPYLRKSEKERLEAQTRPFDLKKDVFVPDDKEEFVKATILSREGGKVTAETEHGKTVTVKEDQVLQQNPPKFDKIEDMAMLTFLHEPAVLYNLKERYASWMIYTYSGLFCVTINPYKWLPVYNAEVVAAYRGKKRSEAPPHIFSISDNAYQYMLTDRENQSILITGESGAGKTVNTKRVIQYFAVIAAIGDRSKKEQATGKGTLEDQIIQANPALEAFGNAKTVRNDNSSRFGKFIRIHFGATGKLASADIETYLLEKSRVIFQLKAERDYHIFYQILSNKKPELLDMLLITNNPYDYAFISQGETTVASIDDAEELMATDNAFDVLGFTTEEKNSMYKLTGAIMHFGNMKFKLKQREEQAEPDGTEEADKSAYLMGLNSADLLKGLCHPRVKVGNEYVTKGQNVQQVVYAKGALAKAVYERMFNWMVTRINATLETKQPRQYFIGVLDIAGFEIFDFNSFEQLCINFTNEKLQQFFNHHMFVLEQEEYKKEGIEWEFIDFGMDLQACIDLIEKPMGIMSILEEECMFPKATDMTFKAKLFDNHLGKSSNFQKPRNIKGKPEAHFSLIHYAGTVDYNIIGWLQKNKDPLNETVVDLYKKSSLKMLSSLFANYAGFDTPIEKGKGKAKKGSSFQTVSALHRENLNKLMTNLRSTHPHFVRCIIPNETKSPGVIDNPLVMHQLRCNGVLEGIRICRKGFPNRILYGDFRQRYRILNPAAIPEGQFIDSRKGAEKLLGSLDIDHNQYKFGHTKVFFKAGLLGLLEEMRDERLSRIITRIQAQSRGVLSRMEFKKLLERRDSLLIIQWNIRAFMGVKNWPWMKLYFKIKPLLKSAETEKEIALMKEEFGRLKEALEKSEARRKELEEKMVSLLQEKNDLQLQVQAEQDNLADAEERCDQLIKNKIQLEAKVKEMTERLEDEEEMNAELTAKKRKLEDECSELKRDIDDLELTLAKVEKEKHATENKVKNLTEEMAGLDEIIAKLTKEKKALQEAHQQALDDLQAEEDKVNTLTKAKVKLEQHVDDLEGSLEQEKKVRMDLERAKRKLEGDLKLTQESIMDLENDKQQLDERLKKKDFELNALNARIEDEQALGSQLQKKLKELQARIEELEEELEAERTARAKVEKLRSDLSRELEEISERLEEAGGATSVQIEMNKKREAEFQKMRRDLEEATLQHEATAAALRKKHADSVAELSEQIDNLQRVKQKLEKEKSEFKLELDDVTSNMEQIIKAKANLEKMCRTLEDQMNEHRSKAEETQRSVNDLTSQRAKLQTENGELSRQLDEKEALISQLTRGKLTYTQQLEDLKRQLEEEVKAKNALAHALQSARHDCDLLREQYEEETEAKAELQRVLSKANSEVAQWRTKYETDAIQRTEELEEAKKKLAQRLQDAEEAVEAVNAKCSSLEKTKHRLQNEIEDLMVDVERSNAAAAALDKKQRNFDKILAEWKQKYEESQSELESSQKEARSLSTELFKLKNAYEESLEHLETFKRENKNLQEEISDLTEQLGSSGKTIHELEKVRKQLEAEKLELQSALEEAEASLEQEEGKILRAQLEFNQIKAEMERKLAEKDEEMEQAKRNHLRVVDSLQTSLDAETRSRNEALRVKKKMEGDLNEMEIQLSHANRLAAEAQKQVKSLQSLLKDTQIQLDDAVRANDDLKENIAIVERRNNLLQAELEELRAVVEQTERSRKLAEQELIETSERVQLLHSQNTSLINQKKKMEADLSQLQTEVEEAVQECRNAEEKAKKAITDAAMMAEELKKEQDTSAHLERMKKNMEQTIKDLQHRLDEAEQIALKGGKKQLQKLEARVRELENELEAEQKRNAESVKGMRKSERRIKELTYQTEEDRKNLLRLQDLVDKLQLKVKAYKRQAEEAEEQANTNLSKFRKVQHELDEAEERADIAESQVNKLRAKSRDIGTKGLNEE
Sequence of Bovine cardiac myosin (P85100 whole entry partner): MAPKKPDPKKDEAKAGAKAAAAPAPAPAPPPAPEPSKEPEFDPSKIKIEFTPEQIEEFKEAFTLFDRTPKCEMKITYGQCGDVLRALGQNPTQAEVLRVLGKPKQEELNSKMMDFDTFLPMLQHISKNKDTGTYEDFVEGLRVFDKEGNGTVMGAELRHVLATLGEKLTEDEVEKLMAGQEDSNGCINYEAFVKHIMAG
Sequence of Bovine cardiac myosin (Q3SZE5 whole entry partner): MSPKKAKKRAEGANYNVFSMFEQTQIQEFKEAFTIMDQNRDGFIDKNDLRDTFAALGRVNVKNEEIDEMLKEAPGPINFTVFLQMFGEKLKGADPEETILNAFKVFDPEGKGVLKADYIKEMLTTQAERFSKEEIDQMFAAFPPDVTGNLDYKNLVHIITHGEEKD
Description: (§1) The cardiac muscle myosin II actin-activated ATPase assay is a biochemical assay. Specifically, it is an NADH (nicotinamide adenine dinucleotide)-coupled ATPase assay that relies on NADH fluorescence as a readout. Cardiac myosin is a mechanochemical energy transducer that hydrolyzes ATP to generate force in the presence of its activator, F-actin. The resulting ADP is regenerated to ATP by pyruvate kinase (PK) that transforms one molecule of phosphoenolpyruvate (PEP) to pyruvate in parallel. Subsequently, pyruvate is reduced to lactate by lactate dehydrogenase (LDH) that, in turn, oxidizes one molecule of NADH to NAD. Therefore, the decrease in NADH concentration as a function of time equals the ATP hydrolysis rate. Bovine cardiac myosin is obtained from a commercial source, Cytoskeleton. PK, LDH, ATP, PEP, and NADH are obtained from Sigma. F-actin is prepared in house from Rabbit Muscle Acetone Powder. The assay is run at 25° C. in 384 well black-wall polystyrene microplates with a total volume of 20 μl per well. NADH fluorescence is monitored for 30 minutes with an EnVision Multimode Plate Reader. The slope of the fluorescence response, which is proportional to the reaction rate, is determined by simple linear regression. Final assay conditions are 300 nM cardiac myosin, 10 μM actin, 40 U/ml LDH, 200 U/ml PK, 220 μM NADH, 1 mM PEP, 1 mM ATP in a buffer containing 10 mM 3-(N-morpholino)propanesulfonic acid (pH=7.0), 2 mM MgCl2, 0.15 mM ethylene glycol-bis(p-aminoethyl ether)-N,N,N′,N′-tetraacetic acid, 0.1 mg/mL bovine serum albumin, 0.5% (V/V) dimethyl sulfoxide (DMSO) and 1 mM dithiothreitol. Prior to testing the inhibitory activity of the compounds, a two-fold dilution series starting at 10 mM compound concentration is prepared in DMSO. Subsequently, 100 nl is transferred to each well of the measuring plate containing a mixture of myosin, LDH and PK. The enzymatic reaction is started with the addition of a mixture containing ATP, PEP, NADH and actin. The highest final compound concentration is 50 uM. 20 μM para-aminoblebbistatin in 0.5% DMSO serves as the positive control and 0.5% DMSO alone is the negative control. Reaction rates are determined by using the fluorescence responses of a dilution series of NADH included in all plates and plotted as a function of inhibitor concentration. All measurements are carried out in triplicate. Inhibitory constants are determined by fitting the 16 point dose-response data to a quadratic equation corresponding to a simple one-to-one binding model.

[2] = Photostability, percentage remaining undegraded under illumination or in the dark; conditions: for Photostability 4 hours: percentage remaining undegraded after 4 hours illumination; for Photostability 24 hours: percentage remaining undegraded after 24 hours illumination; for Photostability Dark (24 h): percentage remaining undegraded in the dark
[3] = target: Rabbit skeletal myosin; assay: Skeletal muscle myosin II actin-activated ATPase assay; assay type: biochemical; conditions: 20 nM skeletal muscle myosin II; read-out: SKMMII KI
Description: as §1
The skeletal muscle myosin II actin-activated ATPase assay is performed the same as for cardiac muscle myosin II with the following exceptions: Rabbit skeletal myosin is obtained from Cytoskeleton and the final assay conditions contain 20 nM skeletal muscle myosin II.

| SMILES | Ratio CMMII:NMII Ki/EC50 [1] | Photostability 4 hours [2] | Photostability 24 hours [2] | Photostability Dark (24 h) [2] | Ki [3] | Ki [1] |
| --- | --- | --- | --- | --- | --- | --- |
| COc1cc(N2CC[C@@]3(O)C(=O)c4cc(C(F)(F)F)ccc4N=C23)ccn1 [BPN-0026533] | NMII-sel | 87.7% | 6.4% | 91.7% | 60 µM | – |
| O=C1c2cc(C(F)(F)F)ccc2N=C2N(c3ccc(Cl)cc3)CC[C@@]12O [BPN-0026544] | NMII-sel | 51.1% | 10.8% | 93.7% | 4.8 µM | – |
| O=C1c2cc(Cl)ccc2N=C2N(c3ccc4ccsc4c3)CC[C@@]12O [BPN-0026545] | NMII-sel | 89.4% | 5.1% | >99% | 12 µM | – |
| O=C1c2cc(Cl)ccc2N=C2N(c3ccc4sccc4c3)CC[C@@]12O [BPN-0026546] | NMII-sel | 81.2% | 12.5% | 93.5% | 22 µM | – |
| Cc1cc2c(s1)N=C1N(c3ccc(C#N)c(C)c3)CC[C@@]1(O)C2=O [BPN-0026576] | 3.3 | 98.6% | >99% | >99% | 4.6 µM | 18 µM |
| Cc1ccc(N2CC[C@@]3(O)C(=O)c4cc(F)c(C)cc4N=C23)cc1 [BPN-0026579] | 5.0 | 77.3% | 8.5% | 93.7% | 0.37 µM | 5 µM |
| COc1ccc(N2CC[C@@]3(O)C(=O)c4cc(F)c(C)cc4N=C23)cc1 [BPN-0026605] | 15.0 | 69.6% | 2.3% | 94.2% | 0.29 µM | 15 µM |
| Cc1ccc(N2CC[C@@]3(O)C(=O)c4cc(F)c(C)cc4N=C23)cc1C [BPN-0026607] | NMII-sel | 98.5% | 84.7% | 98.1% | 5.8 µM | – |
| N#Cc1ccc(N2CC[C@@]3(O)C(=O)c4cc(C(F)(F)F)ccc4N=C23)cc1 [BPN-0026608] | 11.6 | 86.7% | <1% | 97.5% | 1.7 µM | 50 µM |
| COc1cccc(N2CC[C@@]3(O)C(=O)c4cc(F)c(C)cc4N=C23)c1 [BPN-0026618] | 3.8 | 92.3% | 17.2% | 96.6% | 5.9 µM | 18 µM |
| Cc1cc2c(cc1F)C(=O)[C@]1(O)CCN(c3ccc4ccoc4c3)C1=N2 [BPN-0026619] | 22.5 | 77.4% | <1% | 91.0% | 2.5 µM | 36 µM |
| Cc1cccc(N2CC[C@@]3(O)C(=O)c4cc(F)c(C)cc4N=C23)c1 [BPN-0026620] | NMII-sel | 94.1% | 27.8% | 92.8% | 16 µM | – |
| COc1cc(N2CC[C@@]3(O)C(=O)c4cc(Cl)ccc4N=C23)ccn1 [BPN-0026621] | 7.0 | 93.3% | 61.4% | 93.5% | 3.4 µM | 40 µM |
| Cc1cc2c(s1)N=C1N(c3cccc(Br)c3)CC[C@@]1(O)C2=O [BPN-0026624] | 14.0 | 90.5% | 88.2% | 92.2% | 24 µM | 210 µM |
| Cc1cc2c(cc1F)C(=O)[C@]1(O)CCN(c3ccc(C#N)cc3)C1=N2 [BPN-0026638] | 7.1 | 87.9% | 71.9% | 91.6% | 0.37 µM | 12 µM |
| Cc1cc2c(s1)N=C1N(c3ccc4ccoc4c3)CC[C@@]1(O)C2=O [BPN-0026639] | 4.2 | 89.8% | 49.5% | >99% | 1.1 µM | 14 µM |
| O=C1c2cc(Cl)ccc2N=C2N(c3ccc(Cl)cc3)CC[C@@]12O [BPN-0026640] | 4.0 | 71.1% | 17.8% | 96.8% | 0.53 µM | 8 µM |
| O=C1c2cc(Cl)c(Cl)cc2N=C2N(c3ccccc3)CC[C@@]12O [BPN-0026643] | 3.5 | 64.0% | <1% | 85.1% | 1.9 µM | 17 µM |
| Cc1cc2c(cc1C(F)(F)F)N=C1N(c3ccccc3)CC[C@@]1(O)C2=O [BPN-0026648] | 11.9 | 94.3% | 84.3% | 97.7% | 4.5 µM | 56 µM |
| Cc1ccc2c(c1)C(=O)[C@]1(O)CCN(c3ccc4ccsc4c3)C1=N2 [BPN-0026650] | NMII-sel | 80.5% | 5.5% | >99% | 4.3 µM | – |
| Cc1ccc2c(c1)C(=O)[C@]1(O)CCN(c3ccc4sccc4c3)C1=N2 [BPN-0026651] | NMII-sel | 73.0% | 5.8% | 97.5% | 3.9 µM | – |
| Cc1cc2c(cc1Cl)C(=O)[C@]1(O)CCN(c3ccccc3)C1=N2 [BPN-0026659] | 3.5 | 72.1% | 17.9% | 91.1% | 0.93 µM | 9 µM |
| Cc1cc2c(cc1C)C(=O)[C@]1(O)CCN(c3cccc(Br)c3)C1=N2 [BPN-0026660] | NMII-sel | 87.4% | 7.6% | 93.8% | 33 µM | – |
| Cc1cc2c(cc1C)C(=O)[C@]1(O)CCN(c3ccc(C#N)c(C)c3)C1=N2 [BPN-0026661] | 22.1 | 95.5% | 65.4% | 98.2% | 2.2 µM | 53 µM |
| Cc1cc2c(cc1C)C(=O)[C@]1(O)CCN(c3ccc(Cl)cc3)C1=N2 [BPN-0026662] | 5.5 | 85.4% | 7.5% | >99% | 0.19 µM | 6 µM |
| Cc1ccc(N2CC[C@@]3(O)C(=O)c4cc(C)c(C)cc4N=C23)cc1 [BPN-0026663] | 3.5 | 40.7% | 2.0% | 97.3% | 0.12 µM | 2.8 µM |
| Cc1cc2c(cc1C)C(=O)[C@]1(O)CCN(c3ccc4ccoc4c3)C1=N2 [BPN-0026664] | 33.3 | 30.3% | <1% | 97.7% | 1.5 µM | 29 µM |
| COc1ccc(N2CC[C@@]3(O)C(=O)c4cc(C)c(C)cc4N=C23)cc1 [BPN-0026665] | 6.7 | 2.7% | <1% | 97.4% | 0.14 µM | 4.2 µM |
